Results published in patent publication US20110190249A1, “THERAPEUTIC METHODS AND USES OF SAPOGENINS AND THEIR DERIVATIVES” (PHYTOPHARM PLC, priority 2002, published 2011).

How the values were obtained:
caspase-3 = assay: Glutamate induced caspase 3 activity in cortical neurones; type: cell-based, rat; conditions: 300 nM for 6 h after glutamate 100 microM 10 min; glutamate alone 131
Experimental: The objective of this study was to examine the anti-apoptotic effect of smilagenin on the caspase-3 activity, a marker of apoptosis, in rat primary cortical cultures exposed to glutamate
Rat cortical neurones were cultured for 6 days. At day 6, glutamate (100 microM, 10 min) was added. Then the cultures were washed and medium was replaced with fresh medium containing smilagenin or vehicle control (DMSO, 0.25%) for 6 h. After 6 h treatment, apoptosis was evaluated by measuring caspase 3, activity. Caspase 3 activity was detected by the cleavage of p-nitroaniline from a colorimetric caspase-3 substrate, acetyl-Asp-Glu-Val-Asp p-nitroanilide. […] has a high absorbance at 405 nm. Relative caspase-3 activity was measured as optical density. In addition the relative activity of caspase-3 was standardised to protein concentration of the sample, which was also measured as an optical density (Du et al, J Neurochem., 69, 1382-1388, 1997; Sawada et al, Faseb J., 14, 1202-1214, 2000).

[1] = system: rat primary cortical neurones; assay: Prevention of glutamate-induced neurodegeneration (LDH release), pre-treatment; type: cell-based; conditions: 30 nM, given 24 h before glutamate; LDH 24 h after glutamate; control = 100
Experimental: The objective of this study was to examine the effects of sarsasapogenin, episarsasapogenin cathylate, episarsasapogenin, epismilagenin and smilagenin on the survival of rat primary cortical neurones exposed to glutamate, which is known to induce neuro degeneration.
Rat cortical neurones were cultured for 10 days; at day 10 the medium was changed to a serum-free defined medium. On day 12, 24 hours before glutamate exposure, cultures were washed and medium was replaced with fresh medium containing positive control (β-oestradiol), test compounds (sarsasapogenin, episarsasapogenin cathylate, episarsasapogenin, epismilagenin and smilagenin) or vehicle control (DMSO, 0.25%) or diosgenin as negative control.
On day 13, cultures were exposed to glutamate. After the incubation period, the cultures were washed with and placed in fresh medium, supplemented with relevant compounds or vehicle to evaluate their protective effects, 24 h after glutamate exposure.
Neuronal cell survival was evaluated by measuring lactate dehydrogenase (LDH) activity released in the media 24 h after test compound treatment or glutamate+test compound exposure, using the CytoTox 96 non-radioactive kit and quantitated by measuring wavelength absorbance at 450 nm.

dopamine (D) 1 receptor = assay: Dopamine D1 receptor density in aged rats; type: in vivo, rat; conditions: aged rats treated 3 months; aged untreated 129.2±36.8, young 157.5±33.2
Experimental: Aged Sprague-Dawley rats aged were divided into different groups, one control and groups treated for 2-3 months with either sarsasapogenin, episarsasapogenin cathylate or smilagenin (18 mg kg^−1 day^−1, n=10). A control group (n=14) of untreated young rats was also included in the study. The daily dose of drug was mixed in a minimum amount of food and was administered every morning separately to each rat.
By contrast, smilagenin and sarsasapogenin treatment in aged rats for 3 months restored the D1 and D2 receptor density (smilagenin 177±10.9; 217±45.7 fmol/mg protein; sarsasapogenin 172.0±44.0; 206.4±60.5 respectively).

## C[C@@H]1CC[C@@]2(OC1)O[C@H]1C[C@H]3[C@@H]4CC[C@@H]5C[C@@H](O)CC[C@]5(C)[C@H]4CC[C@]3(C)[C@H]1[C@@H]2C [smilagenin]
caspase-3
  Caspase activity (% of control): 105 % of control
[1]
  Prevention of glutamate-induced neurodegeneration, Mean ± s.e.m (%): 91 ± 4%
Dopamine (D) 1 receptor
  D1 receptor density: 177±10.9 fmol/mg protein
